In patent publication US20250026741A1, “INHIBITORS OF THE ONCOGENIC SHP2 PHOSPHATASE AND USES THEREOF” (Sanford Burnham Prebys Medical Discovery Institute, priority 2021, published 2025):
Where two headings read alike, the source gives them in different places.

How the values were obtained:
[1] = system: MLL-AF10 leukemia cells expressing wild-type SHP2; experiment: Cell viability assay, MLL-AF10 cells expressing wild-type SHP2; assay type: cell-based, mouse; conditions: Mus musculus
Protocol: Cell viability assays of SHP099, #01, and #02 against mouse MLL-AF10 leukemia cells were conducted. Two MLL-AF10 cell lines were employed, one expressing wild-type SHP2, and the other expressing E76K mutant SHP2.

[2] = molecular target: SHP2 catalytic domain (SHP2cat; residues 248-527) (Homo sapiens (Human), UniProt Q06124); experiment: DiFMUP fluorescence intensity phosphatase inhibition assay, SHP2cat; assay type: biochemical
Description: To test the synthesized compounds for their potential to inhibit SHP2 activity, a fluorescence intensity-based assay using 6,8-difluoro-4-methylumbelliferyl phosphate (DiFMUP) as the substrate was adapted for three recombinant SHP2 constructs: 1) the SHP2 catalytic domain (SHP2cat; residues 248-527), 2) the full-length SHP2-E76K oncogenic mutant, and 3) the full-length SHP2 wild-type (SHP2-WT). The recombinant SHP2 proteins were expressed and purified. A dually phosphorylated peptide derived from the insulin receptor substrate 1 (IRS-1) served as a surrogate binding protein and was used to activate SHP2-WT. […] Michaelis-Menten experiments to determine the DiFMUP Michaelis-Menten constant (Kmn) for each SHP2 construct were performed and yielded the following values: SHP2-WT, Km=60 μM; SHP2-E76K, Km=20 μM; SHP2cat, Km=20 μM. Relative maximum rates (Vmax) of the DiFMUP reactions were as follows: SHP2-WT, Vmax=871 AFU/min; SHP2-E76K, Vmax, =2730 AFU/min; SHP2cat, Vmax=2912 AFU/min. IC50 values for each compound were determined from initial rates in 10-point dose-response assays using DiFMUP at a concentration corresponding to its Km value for the respective SHP2 construct.
SHP2 inhibitors were tested at room temperature (RT) in a 384-well plate format standard phosphatase fluorescence intensity assay using DiFMUP (Invitrogen/Thermo Fisher Scientific, Carlsbad, CA) as a substrate and a total reaction volume of 25 μL. SHP2 inhibitors or vehicle (DMSO) were spotted in triplicate into a black Greiner FLUOTRAC™ 200 384-well microplate (#781076, Greiner) for a 10-point dose-response assay using an Echo®555 Liquid Handler (Labcyte, Inc., San Jose, CA). PTP working solutions were prepared at a 0.625 nM concentration (for a final concentration of 0.5 nM) in buffer containing 50 mM Bis-Tris pH 6.0, 50 mM NaCl, 5 mM DTT, and 0.01% Tween® 20. Prior to the assay, a dually phosphorylated insulin receptor substrate 1 (IRS-1) peptide [625 nM (500 nMfinal) (30)] was added to full-length WT SHP2 working solutions and incubated for 20 min. DiFMUP working solutions at 5× final concentration were prepared in 50 mM Bis-Tris pH 6.0, 50 mMNaCl, and 0.01% Tween 20. 20 μL of PTP working solution was dispensed into the microplate and incubated with inhibitor for 20 min at RT. […] The reaction was initiated by addition of 5 μL DiFMUP working solutions. Fluorescence intensity was measured in kinetic mode (every minute for 7 or 10 min) using a Tecan Spark® Multimode Microplate Reader (Tecan, Groedig, Austria) with an excitation wavelength of 360 nm and an emission wavelength of 460 nm. The initial rates were determined from the linear progression curves of the PTP reaction. The nonenzymatic hydrolysis of the substrate was corrected by using a control without addition of enzyme. IC50 values were calculated from the corrected initial rates by nonlinear regression using the program GraphPad Prism (GraphPad Software, Inc., San Diego, CA) Version 8. Dose-response inhibition assays of SHP2cat using the substrate OMFP were performed similarly as described above for DiFMUP. OMFP was used at a concentration corresponding to its Km value for SHP2cat (50 μM final). Fluorescence intensity was measured in kinetic mode (every minute for 10 min) using a Tecan Spark Multimode Microplate Reader with an excitation wavelength of 485 nm and an emission wavelength of 535 nm. Initial rates were determined and IC50 vales calculated as described above.

[3] = molecular target: full-length SHP2 wild-type (SHP2-WT) (Homo sapiens (Human), UniProt Q06124); experiment: DiFMUP fluorescence intensity phosphatase inhibition assay, SHP2-WT activated with IRS-1 peptide; assay type: biochemical; conditions: DiFMUP at Km (60 μM), IRS-1 peptide activated
How it was run: (§1)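 DiFMUP at its Km per construct (60 μM WT, 20 μM E76K and SHP2cat), 0.5 nM enzyme, pH 6.0 Bis-Tris, RT; SHP2-WT preactivated with 500 nM bis-phospho IRS-1 peptide; 20 min inhibitor preincubation. Kinetic fluorescence (ex 360/em 460 nm); IC50 from background-corrected initial rates, 10-point curves.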

[4] = molecular target: full-length SHP2-E76K oncogenic mutant (Homo sapiens (Human), UniProt Q06124, E76K); experiment: DiFMUP fluorescence intensity phosphatase inhibition assay, SHP2-E76K; assay type: biochemical
How it was run: as §1

[5] = DiFMUP at Km (20 μM), read-out: SHP2cat IC50
[6] = catalytic domain, DiFMUP at Km, read-out: SHP2 IC50
[7] = DiFMUP at Km (20 μM), 10-point dose-response, read-out: SHP2-E76K IC50

Sequence of SHP2 catalytic domain (SHP2cat; residues 248-527) (Q06124 248-527): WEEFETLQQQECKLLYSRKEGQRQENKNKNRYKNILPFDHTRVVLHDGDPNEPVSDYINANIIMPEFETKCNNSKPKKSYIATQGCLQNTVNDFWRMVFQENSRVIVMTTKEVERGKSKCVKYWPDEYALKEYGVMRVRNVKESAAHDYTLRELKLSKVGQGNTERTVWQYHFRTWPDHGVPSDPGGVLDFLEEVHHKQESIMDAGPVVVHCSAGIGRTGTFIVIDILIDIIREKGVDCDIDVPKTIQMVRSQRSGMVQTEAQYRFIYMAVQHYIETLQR
Sequence of full-length SHP2-E76K oncogenic mutant (Q06124 whole entry E76K): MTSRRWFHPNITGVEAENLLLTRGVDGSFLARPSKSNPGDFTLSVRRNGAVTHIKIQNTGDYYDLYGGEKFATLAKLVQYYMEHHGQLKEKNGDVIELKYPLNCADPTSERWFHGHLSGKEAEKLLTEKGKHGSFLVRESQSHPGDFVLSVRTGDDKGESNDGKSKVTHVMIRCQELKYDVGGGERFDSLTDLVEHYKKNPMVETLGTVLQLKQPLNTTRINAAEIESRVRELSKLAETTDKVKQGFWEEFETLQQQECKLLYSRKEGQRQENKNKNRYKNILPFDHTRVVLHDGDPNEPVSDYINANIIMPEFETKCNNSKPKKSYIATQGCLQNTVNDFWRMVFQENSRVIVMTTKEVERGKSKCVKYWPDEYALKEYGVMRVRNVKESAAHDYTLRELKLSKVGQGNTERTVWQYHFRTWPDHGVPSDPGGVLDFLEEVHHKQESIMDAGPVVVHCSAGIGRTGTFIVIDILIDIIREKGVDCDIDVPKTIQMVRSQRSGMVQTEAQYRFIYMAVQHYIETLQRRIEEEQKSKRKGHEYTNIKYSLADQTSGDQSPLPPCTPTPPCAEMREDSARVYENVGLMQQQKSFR
Sequence of full-length SHP2 wild-type (SHP2-WT) (Q06124 whole entry, other chains not shown): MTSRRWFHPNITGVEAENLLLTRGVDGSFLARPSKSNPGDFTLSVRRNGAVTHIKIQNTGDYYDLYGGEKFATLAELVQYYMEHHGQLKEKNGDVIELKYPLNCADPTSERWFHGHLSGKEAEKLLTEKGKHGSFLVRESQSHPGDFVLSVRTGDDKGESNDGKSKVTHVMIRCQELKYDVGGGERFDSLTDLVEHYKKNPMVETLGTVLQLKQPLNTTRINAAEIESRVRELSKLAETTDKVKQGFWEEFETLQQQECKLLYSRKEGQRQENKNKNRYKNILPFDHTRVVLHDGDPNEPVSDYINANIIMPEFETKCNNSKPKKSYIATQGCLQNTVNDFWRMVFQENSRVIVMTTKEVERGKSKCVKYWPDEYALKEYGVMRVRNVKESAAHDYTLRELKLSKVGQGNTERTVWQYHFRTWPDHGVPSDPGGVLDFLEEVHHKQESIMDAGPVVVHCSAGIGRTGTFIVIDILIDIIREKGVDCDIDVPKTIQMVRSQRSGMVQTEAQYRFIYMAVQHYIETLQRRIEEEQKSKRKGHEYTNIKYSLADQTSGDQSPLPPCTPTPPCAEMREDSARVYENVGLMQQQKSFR

Nc1ccc(NC(=O)c2cc(-c3ccc(/C=C4\Sc5ccccc5C4=O)o3)ccc2O)cc1 [#01, (Z)—N-(4-Aminophenyl)-2-hydroxy-5-(5-((3-oxobenzo[b]thiophen-2(3H)-ylidene)methyl)furan-2-yl)benzamide]
IC50 [1]: 916 nM | IC50 [2, 5]: ≤ 1000 nM | IC50 [2, 6]: 220 nM | IC50 [3]: 1000 to 20000 nM | IC50 [4, 7]: ≤ 1000 nM

O=C(Nc1ccccc1)c1cc(-c2ccc(/C=C3\Sc4ccccc4C3=O)o2)ccc1O [#02, (Z)-2-hydroxy-5-(5-((3-oxobenzo[b]thiophen-2(3H)-ylidene)methyl)furan-2-yl)-N-phenylbenzamide]
IC50 [1]: 2000 nM | IC50 [2, 5]: ≤ 1000 nM | IC50 [2, 6]: 730 nM | IC50 [3]: 1000 to 20000 nM | IC50 [4, 7]: 1000 to 20000 nM | IC50 ([4]; IC50 against SHP2-E76K, in vitro phosphatase inhibition assay, screening hit, heading: IC50 against SHP2-E76K): 1800 nM

N#Cc1cc(-c2ccc(/C=C3\Sc4ccccc4C3=O)o2)ccc1O [#05, (Z)-2-Hydroxy-5-(5-((3-oxobenzo[b]thiophen-2(3H)-ylidene)methyl)furan-2-yl)benzonitrile]
IC50 [2, 5]: 1000 to 20000 nM | IC50 [2, 6]: 1400 nM | IC50 [3]: 1000 to 20000 nM | IC50 [4, 7]: 1000 to 20000 nM
